How the values were obtained:
Assay type in all cases: biochemical
recombinant human DPP9 = biological target: T1, recombinant human DPP9 (Homo sapiens, UniProt Q86TI2); experiment: DPP9 inhibition, fluorogenic substrate H-Gly-Pro-AMC; conditions: recombinant human DPP9
T1 construct: purchased R&D Systems
Procedure: (§1) The compounds according to the present technology were evaluated in terms of the inhibitory effect on the activity of dipeptidyl peptidases including FAP by using a substrate producing fluorescent substances upon enzymatic decomposition. The test was conducted at 25° C. to get a final reaction volume of 100 μL in a 96 black well plate. […] Briefly, the test compounds were dissolved in dimethyl sulfoxide (DMSO) at a concentration of 20 mM and then subjected to serial dilution, thereby creating an 8 point curve. As for the control group, a 6 point curve created by serial dilution of Talabostat in the same buffer solution was used. Fluorescence intensity was measured using a microplate reader (Flexstation3, Molecular Devices) under the wavelength condition exciting at 380 nm and reading the emission at 460 nm. The inhibitory effect of the test compounds was measured as a decrease (%) in the signal rate as compared to the control group without any inhibitor. Data was fixed to a logistic model with four variables and IC50 value was calculated using GraphPad Prism program. As for recombinant human DPP4 (R&D Systems), 25 mM tris (pH 8.0) buffer as a buffer solution and H-Gly-Pro-AMC (Bachem) as a substrate were used. As for recombinant human DPP7 (R&D Systems), 25 mM MES (pH 6.0) buffer as a buffer solution and Lys-Pro-AMC (Bachem) as a substrate were used. As for recombinant human DPP8 (PBS Bioscience), as a buffer solution, a 10 mM tris (pH 7.4) buffer comprising 10 mM of magnesium chloride and 0.05% of Tween 20, and Z-Ala-Pro-AMC (BPS Bioscience) as a substrate were used. As for recombinant human DPP9 (R&D Systems), a 25 mM tris (pH 8.0) buffer as a buffer solution and H-Gly-Pro-AMC (Bachem) as a substrate were used. As for recombinant human PREP (R&D System), as a buffer solution, a 25 mM tris (pH 7.5) buffer comprising 250 mM sodium chloride and 2.5 mM DTT (Dithiolthreitol), and Z-Gly-Pro-AMC (Bachem) as a substrate were used. The evaluation was made by using 10 ng of DPP4, PDD7, and PREP, 20 ng of DPP8, and 50 ng of DPP9 based on the final reaction. In the evaluation of DPP4, the test compounds were subjected to serial dilution in a buffer under the condition containing up to 0.1% of DMSO. In the evaluation of DPP7, DPP8, DPP9, and PREP, the test compounds were subjected to serial dilution in each buffer under the condition containing up to 0.5% of DMSO.

Recombinant human FAP = biological target: T2, Recombinant human FAP (Homo sapiens, UniProt Q12884); experiment: FAP FRET assay, FGF21-sequence FRET peptide substrate; conditions: FRET peptide with human FGF21 sequence, 6 μM, 37° C.
T2 construct: purchased R&D systems
T2 sequence (Q12884 1-760): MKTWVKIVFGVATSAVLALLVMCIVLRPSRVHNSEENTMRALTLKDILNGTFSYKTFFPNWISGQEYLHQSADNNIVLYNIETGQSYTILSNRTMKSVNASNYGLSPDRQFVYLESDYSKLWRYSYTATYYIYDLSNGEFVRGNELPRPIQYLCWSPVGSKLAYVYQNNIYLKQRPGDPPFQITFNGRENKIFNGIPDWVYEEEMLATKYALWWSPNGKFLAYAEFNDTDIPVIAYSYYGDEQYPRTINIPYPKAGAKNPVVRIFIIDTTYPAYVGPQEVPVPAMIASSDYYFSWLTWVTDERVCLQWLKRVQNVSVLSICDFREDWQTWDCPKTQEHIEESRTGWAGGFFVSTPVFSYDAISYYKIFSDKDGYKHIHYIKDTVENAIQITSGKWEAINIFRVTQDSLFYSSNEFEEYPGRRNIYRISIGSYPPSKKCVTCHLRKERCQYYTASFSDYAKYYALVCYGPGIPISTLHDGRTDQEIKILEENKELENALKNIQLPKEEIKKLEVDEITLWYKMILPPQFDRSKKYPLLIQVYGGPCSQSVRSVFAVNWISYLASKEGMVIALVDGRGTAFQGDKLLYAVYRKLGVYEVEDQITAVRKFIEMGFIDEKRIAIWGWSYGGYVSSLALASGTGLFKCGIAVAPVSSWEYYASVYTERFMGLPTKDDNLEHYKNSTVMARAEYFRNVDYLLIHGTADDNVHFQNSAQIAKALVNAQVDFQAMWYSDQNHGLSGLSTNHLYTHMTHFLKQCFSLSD
Outline: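 FRET peptide bearing human FGF21 sequence (6 μM final) cleaved by 10 ng recombinant human FAP at 37° C in HEPES pH 7.2 buffer with NaCl, BSA and EDTA, DMSO up to 0.1%. Signal-rate decrease versus uninhibited control fitted to a four-variable logistic model for IC50.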

recombinant human DPP7 = biological target: T3, recombinant human DPP7 (Homo sapiens, UniProt Q9UHL4); experiment: DPP7 inhibition, fluorogenic substrate Lys-Pro-AMC; conditions: recombinant human DPP7
T3 construct: purchased R&D Systems
Procedure: as §1

DPP4 = DPP4 (Homo sapiens, UniProt P27487); experiment: DPP4 inhibition, fluorogenic substrate H-Gly-Pro-AMC; set-up: purchased R&D Systems; conditions: recombinant human DPP4
recombinant human PREP = biological target: T4, recombinant human PREP (Homo sapiens, UniProt P48147); experiment: PREP inhibition, fluorogenic substrate Z-Gly-Pro-AMC; conditions: Inhibitory Activity (IC50, nM) PREP, recombinant human PREP
T4 construct: purchased R&D System
T4 sequence (P48147 1-710): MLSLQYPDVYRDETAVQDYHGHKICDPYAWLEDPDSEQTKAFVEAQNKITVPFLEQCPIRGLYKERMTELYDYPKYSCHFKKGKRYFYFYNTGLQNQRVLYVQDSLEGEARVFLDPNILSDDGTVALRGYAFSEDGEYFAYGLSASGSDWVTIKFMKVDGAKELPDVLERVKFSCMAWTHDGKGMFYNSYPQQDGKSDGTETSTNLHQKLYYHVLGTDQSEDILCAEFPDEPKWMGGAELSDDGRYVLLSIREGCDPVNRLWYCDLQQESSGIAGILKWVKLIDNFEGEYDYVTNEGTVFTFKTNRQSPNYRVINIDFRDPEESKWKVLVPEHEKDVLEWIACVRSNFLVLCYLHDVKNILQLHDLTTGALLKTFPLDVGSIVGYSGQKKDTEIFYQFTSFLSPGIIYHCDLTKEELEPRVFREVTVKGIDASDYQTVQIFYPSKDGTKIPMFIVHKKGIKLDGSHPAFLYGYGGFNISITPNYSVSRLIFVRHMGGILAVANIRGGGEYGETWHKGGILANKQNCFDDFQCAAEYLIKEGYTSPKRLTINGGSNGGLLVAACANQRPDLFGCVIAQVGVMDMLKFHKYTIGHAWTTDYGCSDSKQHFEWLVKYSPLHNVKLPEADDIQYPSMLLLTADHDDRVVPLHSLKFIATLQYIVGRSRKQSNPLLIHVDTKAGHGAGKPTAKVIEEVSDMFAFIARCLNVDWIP
Procedure: as §1

Sequence of DPP4 (P27487 whole entry): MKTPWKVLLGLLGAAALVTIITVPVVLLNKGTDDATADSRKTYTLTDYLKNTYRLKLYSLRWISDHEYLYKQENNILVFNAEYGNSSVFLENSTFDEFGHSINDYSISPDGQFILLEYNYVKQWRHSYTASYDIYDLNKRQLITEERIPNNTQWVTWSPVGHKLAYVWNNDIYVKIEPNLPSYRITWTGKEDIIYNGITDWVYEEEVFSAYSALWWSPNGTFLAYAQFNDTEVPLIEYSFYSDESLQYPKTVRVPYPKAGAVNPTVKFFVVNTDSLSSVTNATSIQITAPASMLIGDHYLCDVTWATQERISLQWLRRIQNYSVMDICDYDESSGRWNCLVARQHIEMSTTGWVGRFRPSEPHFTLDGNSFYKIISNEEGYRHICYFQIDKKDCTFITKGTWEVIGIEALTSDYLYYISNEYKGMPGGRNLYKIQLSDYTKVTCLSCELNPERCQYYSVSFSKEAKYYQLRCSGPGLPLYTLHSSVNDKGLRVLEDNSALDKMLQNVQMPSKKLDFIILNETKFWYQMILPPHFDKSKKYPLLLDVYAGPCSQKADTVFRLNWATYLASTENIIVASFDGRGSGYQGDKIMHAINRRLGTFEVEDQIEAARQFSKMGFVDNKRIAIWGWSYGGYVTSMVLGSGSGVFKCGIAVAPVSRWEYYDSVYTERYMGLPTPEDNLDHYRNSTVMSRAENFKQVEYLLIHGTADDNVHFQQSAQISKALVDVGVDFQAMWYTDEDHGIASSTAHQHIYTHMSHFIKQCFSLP
T1 sequence (Q86TI2 whole entry): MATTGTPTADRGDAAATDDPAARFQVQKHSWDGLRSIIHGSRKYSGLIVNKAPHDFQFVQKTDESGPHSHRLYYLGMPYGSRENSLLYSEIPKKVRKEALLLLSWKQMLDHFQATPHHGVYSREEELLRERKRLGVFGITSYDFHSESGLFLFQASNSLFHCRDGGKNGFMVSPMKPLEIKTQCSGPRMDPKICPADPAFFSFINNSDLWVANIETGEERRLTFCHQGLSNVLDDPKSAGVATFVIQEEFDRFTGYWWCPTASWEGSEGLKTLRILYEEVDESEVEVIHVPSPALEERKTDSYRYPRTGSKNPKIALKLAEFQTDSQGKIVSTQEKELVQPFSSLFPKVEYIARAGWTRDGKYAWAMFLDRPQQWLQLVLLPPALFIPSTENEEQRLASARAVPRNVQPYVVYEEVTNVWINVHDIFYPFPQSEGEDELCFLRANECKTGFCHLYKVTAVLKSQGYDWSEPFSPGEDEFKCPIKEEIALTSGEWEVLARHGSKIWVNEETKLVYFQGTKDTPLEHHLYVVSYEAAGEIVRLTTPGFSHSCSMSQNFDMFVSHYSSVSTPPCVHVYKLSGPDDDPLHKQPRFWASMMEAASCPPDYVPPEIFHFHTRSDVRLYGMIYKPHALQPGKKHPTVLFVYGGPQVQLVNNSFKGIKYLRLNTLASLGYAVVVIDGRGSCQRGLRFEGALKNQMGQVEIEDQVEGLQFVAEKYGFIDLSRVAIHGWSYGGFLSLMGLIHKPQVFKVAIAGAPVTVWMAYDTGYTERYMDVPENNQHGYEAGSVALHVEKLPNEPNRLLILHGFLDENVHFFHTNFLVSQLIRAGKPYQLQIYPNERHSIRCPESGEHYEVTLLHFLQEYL

Row | IC50 (recombinant human DPP9) | IC50 (Recombinant human FAP) | IC50 (recombinant human DPP7) | IC50 (DPP4) | IC50 (recombinant human PREP) | SMILES
1 | 2820 nM | 4.9 nM | 77.8 nM | 1780 nM | 1080 nM | CN(c1ccc(OC(F)(F)F)c2ncccc12)[C@H]1CCN(CC(=O)N2C[C@@H](F)C[C@H]2C#N)C1 [Example 160, (2S,4S)-4-fluoro-1-[2-[(3S)-3-[methyl-[8-(trifluoromethoxy)-5-quinolyl]amino]pyrrolidin-1-yl]acetyl]pyrrolidine-2-carbonitrile]
2 | 5400 nM | 9.3 nM | 4900 nM | 1870 nM | 4240 nM | N#C[C@@H]1C[C@H](F)CN1C(=O)CN1CC[C@@H](Nc2cnc3nc(Cl)ccc3c2)C1 [Example 172, (2S,4S)-4-fluoro-1-[2-[(3R)-3-[(7-chloro-1,8-naphthyridin-3-yl)amino]pyrrolidin-1-yl]acetyl]pyrrolidine-2-carbonitrile]
3 | 2950 nM | 5.3 nM | 11100 nM | 1120 nM | 1870 nM | N#C[C@@H]1C[C@H](F)CN1C(=O)CN1CC[C@@H](Nc2c(F)ccc3ncccc23)C1 [Example 173, (2S,4S)-4-fluoro-1-[2-[(3R)-3-[(6-fluoro-5-quinolyl)amino]pyrrolidin-1-yl]acetyl]pyrrolidine-2-carbonitrile]
4 | 1990 nM | 2.6 nM | 846 nM | 3020 nM | 2440 nM | N#C[C@@H]1C[C@H](F)CN1C(=O)CN1CC[C@@H](Nc2cc(F)cc3ncccc23)C1 [Example 174, (2S,4S)-4-fluoro-1-[2-[(3R)-3-[(7-fluoro-5-quinolyl)amino]pyrrolidin-1-yl]acetyl]pyrrolidine-2-carbonitrile]
5 | 1170 nM | 2.6 nM | 46.9 nM | 3420 nM | 2920 nM | COc1cc(N[C@@H]2CCN(CC(=O)N3C[C@@H](F)C[C@H]3C#N)C2)c2cccnc2c1 [Example 177, (2S,4S)-4-fluoro-1-[2-[(3R)-3-[(7-methoxy-5-quinolyl)amino]pyrrolidin-1-yl]acetyl]pyrrolidine-2-carbonitrile]
6 | 2570 nM | 10.1 nM | 5960 nM | 1360 nM | 2350 nM | COc1ccc(N[C@@H]2CCN(CC(=O)N3C[C@@H](F)C[C@H]3C#N)C2)c2cccnc12 [Example 178, (2S,4S)-4-fluoro-1-[2-[(3R)-3-[(8-methoxy-5-quinolyl)amino]pyrrolidin-1-yl]acetyl]pyrrolidine-2-carbonitrile]
7 | 2560 nM | 3.6 nM | 401 nM | 1940 nM | 2930 nM | Cc1cnc2cccc(N[C@@H]3CCN(CC(=O)N4C[C@@H](F)C[C@H]4C#N)C3)c2c1 [Example 179, (2S,4S)-4-fluoro-1-[2-[(3R)-3-[(3-methyl-5-quinolyl)amino]pyrrolidin-1-yl]acetyl]pyrrolidine-2-carbonitrile]
8 | 3180 nM | 6.2 nM | 6790 nM | 1020 nM | 1560 nM | Cc1ccc2ncccc2c1N[C@@H]1CCN(CC(=O)N2C[C@@H](F)C[C@H]2C#N)C1 [Example 180, (2S,4S)-4-fluoro-1-[2-[(3R)-3-[(6-methyl-5-quinolyl)amino]pyrrolidin-1-yl]acetyl]pyrrolidine-2-carbonitrile]
9 | 4620 nM | 2.6 nM | 215 nM | 1060 nM | 4670 nM | Cc1ccc(N[C@@H]2CCN(CC(=O)N3C[C@@H](F)C[C@H]3C#N)C2)c2cccnc12 [Example 181, (2S,4S)-4-fluoro-1-[2-[(3R)-3-[(8-methyl-5-quinolyl)amino]pyrrolidin-1-yl]acetyl]pyrrolidine-2-carbonitrile]
10 | 6690 nM | 3.3 nM | 819 nM | 4070 nM | 5360 nM | N#C[C@@H]1C[C@H](F)CN1C(=O)CN1CC[C@@H](Nc2cc(C(F)(F)F)cc3ncccc23)C1 [Example 182, (2S,4S)-4-fluoro-1-[2-[(3R)-3-[[7-(trifluoromethyl)-5-quinolyl]amino]pyrrolidin-1-yl]acetyl]pyrrolidine-2-carbonitrile]
11 | – | 1.3 nM | 3910 nM | 26300 nM | 9150 nM | N#C[C@@H]1CCCN1C(=O)CN1CC[C@@H](Nc2ccc(C(F)(F)F)c3ncccc23)C1 [Example 201, (2S)-1-[2-[(3R)-3-[[8-(trifluoromethyl)-5-quinolyl]amino]pyrrolidin-1-yl]acetyl]pyrrolidine-2-carbonitrile]
12 | – | 12.4 nM | 178 nM | 6610 nM | 1400 nM | N#C[C@@H]1C[C@H](F)CN1C(=O)CN1CCC(Nc2cc(C(F)(F)F)c3ncccc3c2)CC1 [Example 377, (2S,4S)-4-fluoro-1-[2-[4-[[8-(trifluoromethyl)-6-quinolyl]amino]-1-piperidyl]acetyl]pyrrolidine-2-carbonitrile]

Row | SMILES | IC50 (recombinant human DPP9) | IC50 (Recombinant human FAP) | IC50 (recombinant human DPP7) | IC50 (DPP4) | IC50 (recombinant human PREP)
13 | N#Cc1ccc(N[C@H]2CCN(CC(=O)N3C[C@@H](F)C[C@H]3C#N)C2)c2cccnc12 [Example 267, 5-[[(3S)-1-[2-oxo-2-[(2S,4S)-2-cyano-4-fluoro-pyrrolidin-1-yl]ethyl]pyrrolidin-3-yl]amino]quinoline-8-carbonitrile] | – | 1.5 nM | 3160 nM | 2570 nM | 835 nM
